Article PMC12866179, “Oxidized MIF is an Alzheimer’s disease drug target relaying external risk factors to tau pathology” (Cell Reports Medicine, 2025)

Experiments:
HSV-1 [1] = assay: HSV-1 infection of differentiated LUHMES cells (immunocytochemistry, western blot); type: cell-based, HSV-1 KOS strain; conditions: infected with HSV-1
Experimental: 4x10^5 Vero cells, 8x10^5 SH-SY5Y or 2x10^6 differentiated LUHMES (differentiation day 6) cells were seeded into 12-well plates. After 24h the cells were treated with compounds (as indicated in the figures) and after 1h they were infected with HSV-1 applying MOIs as described in the figures. After 20h (or at indicated time points) cells were either washed twice with PBS, then lysed in cold PBS/1% NP40 including the cOmplete EDTA-free protease inhibitor cocktail (Roche) and phosphatase inhibitor cocktail (Sigma) or virus was released by freeze-thawing and ultrasonic treatment for analysis in viral plaque assay (see above). For immunocytochemistry analysis 5x10^4 LUHMES cells at differentiation day 2 were seeded on 13 mm coverslips that were coated with L-ornithine and fibronectin (see above) and placed into 24-well plates. After four additional days of differentiation the cells were infected with HSV-1 (MOI = 1). […] After the protein concentration of cell lysates and homogenates had been determined using the DC Protein Assay Kit (Bio-Rad), 20 μg of each sample were dissolved in NuPAGE LDS Sample buffer (including 2% β-mercaptoethanol), boiled at 100°C for 5 min and then separated on NuPAGE Novex 4–12% Bis-Tris midi gels (Invitrogen) using NuPAGE MES SDS Running buffer (Invitrogen). […] Signal intensities were calculated using the Image Studio Version 2.1 software (LI-COR Biosciences). […]

[2] = MTT assay, SH-SY5Y-tau-P301S cells; type: cell-based; conditions: human, Figure S1B
Experimental: For viability analysis 4x10^4 Vero or 8x10^4 SH-SY5Y-tau-P301S cells were plated in a 96-well plate and incubated at 37°C overnight. Then the compounds diluted in DMSO were added to the cells. The final concentration of DMSO was 1%. The cells were then incubated for 24h (Vero) or 48h (SH-SY5Y). Afterward 20 μL of a Thiazolyl Blue Tetrazolium Bromide (MTT, Sigma) solution (5 mg/mL in PBS) was added to the cells and incubated for 4h allowing viable cells to reduce the yellow MTT into blue formazan metabolites. Following aspiration of the medium, the formazan was resuspended in 200 μL isopropanol/40 mM HCl and incubated for 30 min at RT. The diluted formazan was spectrometrically analyzed using a Tecan Safire Spectrometer at 560 nm and background at 670 nm was subtracted.

wt-MIF and MIF-C80W = assay: SEC-HPLC-MALS of MIF with or without compound; parameters: species or system human; conditions: 100 μM MIF, 100 μM PAV-174
Experimental: The samples for SEC-HPLC-MALS were 100 μM of MIF (WT or mutant C80W) in 20 mM phosphate buffer, with or without compound PAV-174 (100 μM).
The HPLC-MALS was performed at 0.5 mL/min and 25°C with an Agilent 1200 series HPLC system and a size exclusion column TSKgel G2000SWXL from Tosoh bioscience. The detection was performed recording the UV absorbance at 280 nm with the HPLC detector and the light scattering with a miniDawn Treos spectrometer from Wyatt. The molecular weight of the detected species is calculated using the extinction coefficients at 280 nm (12950 M^−1 cm^−1 for WT and 18450 M^−1 cm^−1 for C80W), absorbance at 280 nm and the Rayleigh ratio using the built-in function in Astra software.

HSV-1 [3] = assay: HSV-1 infection of human brain organoids; type: cell-based, HSV-1 KOS strain; conditions: 250 nM PAV-174
Experimental: 60 days old human brain organoids with an estimated cell number of 2.5x10^6 were preincubated with DMSO or 250 nM of PAV-174 for 1h (final DMSO concentration was 0.5%). Then organoids were infected with HSV-1 at an MOI of 0.1 or 1.0. At the next day the medium was renewed and new compound was added. After another 24h, the organoids were washed two times with PBS and then either fixed with 4% PFA at 4°C overnight (for immunocytochemistry and TUNEL assay) or lysed with cold RIPA buffer (50 mM Tris-HCL, pH 7.4, 1% NP-40, 0.5% Na-deoxycholate, 0.1% SDS, 150 mM NaCl, 5 mM EDTA, 50 mM NaF) plus 1X Protease inhibitor cocktail (Roche) and phosphatase inhibitor cocktail (Sigma) followed by 4x sonication for 30s using a Misonix ultrasonic water bath at 100% amplitude. Protein concentration was determined with the DC Protein Assay (Bio-Rad). For immunocytochemistry and TUNEL assay fixed organoids were embedded in paraffin and section of 5 μm were prepared.
For immunocytochemistry of organoid sections, frozen slides were thawed and kept on RT until they were dry. Slides were washed with PBS and incubated for 5 min. Then the sections were incubated with 30 mM glycine in PBS for 5 min and permeabilized with PBS/0.5% TX100/0.1% Tween 20 for 10 min. To equally distribute the solutions a parafilm layer was placed on top. […]

CCc1cc(N2CCCC2)cc2[s+]c3cc(N4CCCC4)cc(C)c3nc12.[I-] [PAV-174, 3,7-Di(pyrrolidine-1-yl) 1-ethyl-9-methyl-phenothiazin-5-ium iodide]
viral antigens (HSV-1-gC) in differentiated LUHMES cells (HSV-1 [1]): reduced | CC50 at 48 h [2]: 1480 nM | effect on monomer-trimer equilibrium / oligomerization of MIF (wt-MIF and MIF-C80W): does not perturb the monomer-trimer equilibrium | HSV-1 infection of human brain organoids (HSV-1-gC staining) (HSV-1 [3]): completely abolished
